Values joined by “and” are separate entries in the source; they are usually repeats but may differ in a detail not shown here. Equal entries are not always repeated. Structures can show the parent of a compound that is named as a salt.

Common to all, as to format: biochemical
Assay [1] addresses T1, catalase (Homo sapiens, UniProt P04040).
T1 sequence (P04040 2-527 limits assumed): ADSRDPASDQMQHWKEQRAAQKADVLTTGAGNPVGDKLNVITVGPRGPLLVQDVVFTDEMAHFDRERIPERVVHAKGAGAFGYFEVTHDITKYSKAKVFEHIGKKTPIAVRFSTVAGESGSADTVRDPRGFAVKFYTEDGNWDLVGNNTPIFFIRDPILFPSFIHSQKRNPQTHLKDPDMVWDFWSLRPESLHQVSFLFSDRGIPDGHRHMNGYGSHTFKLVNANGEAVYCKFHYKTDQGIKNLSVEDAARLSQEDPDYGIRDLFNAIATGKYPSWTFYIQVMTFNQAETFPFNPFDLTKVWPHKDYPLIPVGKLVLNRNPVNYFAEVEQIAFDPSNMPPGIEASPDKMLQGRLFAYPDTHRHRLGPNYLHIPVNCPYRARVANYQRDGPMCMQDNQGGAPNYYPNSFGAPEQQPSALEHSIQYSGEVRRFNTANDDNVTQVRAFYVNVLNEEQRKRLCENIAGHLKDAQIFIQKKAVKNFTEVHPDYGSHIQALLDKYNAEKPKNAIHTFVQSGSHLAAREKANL
The experiment in a line: Catalase inhibitor screening, aqueous hydrogen peroxide samples with added catalase, dye indicator/peroxidase system, absorbance at 514 nm.

The target of assay [2] is T1, catalase. Kind of assay: Catalase inhibitor screening, plasma cholesterol sample with catalase, reporter system Primaquine/MBTH. The settings on record: inhibitor 0.5 mM. On the procedure: (§1) The inhibitors were added along with the extra catalase, and spectrophotometric measurements at 514 nm were obtained.
(§2) The percent recovery of absorbance is defined as follows: [formula]
(§3) In the following tables, the concentrations of inhibitor substances are expressed as the final concentration in the reaction system after accounting for dilution factors.

The target of assay [3] is T1, catalase. Kind of assay: Catalase inhibitor screening, aqueous cholesterol sample 50 mg/dL with catalase, reporter system Primaquine/MBTH. The note with it: aqueous cholesterol 50 mg/dL with catalase, inhibitor 0.5 mM. On the procedure: as §1, §2, §3

As to `NO.NO.O=S(=O)(O)O` [Hydroxylamine sulfate], the “% Recovery (of absorbance)” value is 99% and 95% and 90% and 97% and 91% at catalase [1]; 99% at catalase [2]; 96% at catalase [3]. For the compound `O=[N+]([O-])[O-].O=[N+]([O-])[O-].[Cu+2]` [Cupric nitrate], the “% Recovery (of absorbance)” value on catalase [1] was 85%. On to `[F-].[Na+]` [Sodium fluoride], for which the “% Recovery (of absorbance)” value on catalase [1] is given as 7%. Consider `CO` [Methanol], for which the “% Recovery (of absorbance)” value at catalase [1] amounted to 7%. Turning to `Oc1cccc(O)c1` [Resorcinol], the “% Recovery (of absorbance)” value is 50% at catalase [1] (peroxide with catalase, inhibitor concentration 0.5 mM); 57% at catalase [1] (peroxide with catalase, inhibitor concentration 5 mM); 79% on catalase [1] (peroxide with catalase, inhibitor concentration 40 mM). Regarding `CCO` [Ethanol], the “% Recovery (of absorbance)” value at catalase [1] came out at 6%. For the compound `Cl.NO` [Hydroxylamine HCl], the “% Recovery (of absorbance)” value on catalase [1] (HCl) was 96% and 95% and 91% and 92%; at catalase [2] it was 98%; on catalase [3], 98%. Turning to `O=CO` [Sodium formate], the “% Recovery (of absorbance)” value at catalase [1] amounted to 8%. On to `[N-]=[N+]=[N-]` [Sodium azide], for which the “effectiveness as inhibitor of catalase activity (in words)” value at catalase [1] was “most effective inhibitors of catalase activity”. In the case of `[Cl][Ni][Cl]` [Nickel (II) chloride], the “% Recovery (of absorbance)” value at catalase [1] is 60%. In the case of `O=NO` [Sodium nitrite], the “% Recovery (of absorbance)” value on catalase [1] came to 30%.

(Values after patent publication US5610025A, “Inhibition of interfering endogenous enzyme activity in assays of biological fluids” (Actimed Laboratories, Inc., priority 1993, dated 1997).)
